Reference: patent publication US10537516B2, “Composition for treating skin pigmentation and related methods” (Access Business Group International LLC, priority 2017, dated 2020)
Values after ≈ are worked out from the molar mass of the structure shown. Values joined by “and” are separate entries in the source; they are usually repeats but may differ in a detail not shown here. Identical values can stand only once. “Also recorded” adds a separate entry of the source. Like-named read-outs stand apart in the source and are kept apart here. Marks after values point to notes of the source that are not given here.

What was measured:
[1] = tested on: B16-F10 cells; assay: CellTiter-Glo (CTG) Luminescent Cell Viability Assay (cell toxicity); assay type: cell-based, Mus musculus (mouse); details: for IC50: Mus musculus, read-out: IC50 cellular toxicity, skin treatment compound/plant extract
Procedure: The toxicity of the skin treatment compounds and plant extracts was evaluated using the CellTiter-Glo® (CTG) Luminescent Cell Viability Assay from Promega Corporation. The assay determines the number of viable cells in culture based on quantitation of the ATP present, which is indicative of the presence of metabolically active cells.
The CellTiter-Glo® reagent was added to the cells and the luminescence was obtained according to the assay instructions provided by Promega Corporation. The IC50 was calculated for each skin treatment compound or plant extract and the corresponding positive control.

[2] = tested on: B16-F10 cells; assay: Melanin elimination in forskolin/8-MOP pre-treated B16-F10 cells; assay type: cell-based, Mus musculus (mouse); details: 72 hours, B16-F10 cells pre-treated with forskolin and 8-MOP; for % Melanin Elimination, skin treatment compound/plant extract: 100 μg/mL, average of two wells
Procedure: (§1) The effects of the present skin treatment compounds and plant extracts were evaluated in vitro using a B16-F10 (ATCC# CRL-6475) cell model. The B16-F10 cell model is a Mus musculus (mouse) melanoma skin cell line. The skin treatment compounds and plant extracts were evaluated for cell toxicity, inhibition of melanin synthesis, inhibition of tyrosinase enzyme activity, and elimination of existing melanin in B16-F10 cells. Tables 1 and 2 below list the 5 skin treatment compounds and 17 skin treatment plant extracts evaluated, respectively.
The ability of the skin treatment compounds and plant extracts to eliminate existing melanin within skin cells was evaluated. Melanin is the pigment in skin cells that is responsible for coloring of the skin and various pigmentation disorders, such as age spots and freckles. Elimination of existing melanin inside a cell may result in lightening of the skin color and/or inhibit further darkening of the skin color. […]
(§2) B16-F10 cells were trypsinized using Trypsin-EDTA and cell density was determined. The cell slurry was diluted to a concentration of 18,000 cells per milliliter (mL) in a growth media containing RPMI 1640 supplemented with fetal bovine serum. The diluted cell slurry was dispensed into the wells of a 24 well cell culture plate at 1 mL per well (18,000 cells/well). The cells were incubated overnight at 37° C. and 5% CO2 in humid conditions.
Following the overnight incubation, the medium was discarded and replaced with 1 mL per well of growth media including 50 μM forskolin (Sigma Cat. #F6886) and 10 μM 8-Methoxypsoralen (8-MOP; Alfa Aesar Cat. #A17108). The cells were then incubated for 72 hours at 37° C. and 5% CO2 in humid conditions.
The medium in each well was discarded and replaced with 1 mL/well. 5 μL of the 200× dilution was added to each well. The treated cells were incubated for 72 hours at 37° C. and 5% CO2 in humid conditions. The skin lightening compounds and plant extracts were evaluated at concentrations of 0 (untreated), 10, 50, and 100 μg/mL. […]
When the treatment period was completed, the medium from each well was discarded and the cells were washed once with 1 mL per well of DPBS. The DPBS wash was removed and 150 μL of 1N sodium hydroxide was added to each well for 30 minutes while the cells were incubated at 80° C. to lyse the cells. Next, 145 μL from each well was transferred to a UV plate and the remaining 5 μL was tested to determine the protein concentration. The UV absorbance of each well was determined using a plate reader with the primary wave length set to 400 nm.
Melanin elimination was determined using the UV absorbance at 400 nm according to the following equation: % Inh=(Max signal−Compound signal)/(Max signal−Min signal)×100
Where “% Inh” is the percent of melanin eliminated from the cell, the “Max signal” is the UV absorption for cells treated with forskolin and 8-MOP, and the “Min signal” is the UV absorption of untreated cells.

[3] = tested on: B16-F10 cells; assay: Melanin synthesis inhibition in B16-F10 cells; assay type: cell-based, Mus musculus (mouse); details: 100 μg/mL, 72 hours, average of two wells
Procedure: as §1
The ability of the skin treatment compounds and plant extracts to inhibit melanin synthesis was evaluated. Melanin is the pigment in skin cells that is responsible for coloring of the skin and various pigmentation disorders, such as age spots and freckles. Inhibition of melanin synthesis may result in lightening of the skin color and/or inhibit further darkening of the skin color. Arbutin is a conventional plant-derived compound used in skin lightening treatments and was therefore selected for use as a positive control.
as §2, with “Trypsin-EDTA (GIBCO Cat. #25200-072)” for “Trypsin-EDTA”, “1640 (GIBCO Cat. #22400-089)” for “1640”, “serum (GIBCO Cat. #10099-141).” for “serum.”, “plate (BD Falcon Cat. #353047)” for “plate”
The plated cells were treated by preparing a 200× dilution of each skin lightening compound, plant extract, and arbutin (i.e., the positive control; Sigma Cat. #A4256) in 100% dimethyl sulfoxide (DMSO; Sigma Cat. #D2650). 5 μL of the 200× dilution was added to each well. The treated cells were incubated for 72 hours at 37° C. and 5% CO2 in humid conditions. The skin lightening compounds and plant extracts were evaluated at concentrations of 0 (untreated), 10, 50, and 100 μg/mL. Arbutin was evaluated at concentrations of 0 (untreated), 25, 125, and 250 μg/mL.
When the treatment period was completed, the medium from each well was discarded and the cells were washed once with 1 mL per well of DPBS (Dulbecco's Phosphate-Buffered Saline; Biosera Cat. #LM-S2041). […] The UV absorbance of each well was determined using a plate reader with the primary wave length set to 400 nm.
Melanin synthesis inhibition was determined using the UV absorbance at 400 nm according to the following equation: % Inh=(Max signal−Compound signal)/(Max signal−Min signal)×100

[4] = target: T1, tyrosinase enzyme (Mus musculus, UniProt P11344); assay: Tyrosinase enzyme activity inhibition in treated B16-F10 cells (L-DOPA); assay type: cell-based; details: 72 hours
T1 construct: endogenous in cells; host or cells: B16-F10 (ATCC# CRL-6475) mouse melanoma cells
T1 sequence (P11344 19-533): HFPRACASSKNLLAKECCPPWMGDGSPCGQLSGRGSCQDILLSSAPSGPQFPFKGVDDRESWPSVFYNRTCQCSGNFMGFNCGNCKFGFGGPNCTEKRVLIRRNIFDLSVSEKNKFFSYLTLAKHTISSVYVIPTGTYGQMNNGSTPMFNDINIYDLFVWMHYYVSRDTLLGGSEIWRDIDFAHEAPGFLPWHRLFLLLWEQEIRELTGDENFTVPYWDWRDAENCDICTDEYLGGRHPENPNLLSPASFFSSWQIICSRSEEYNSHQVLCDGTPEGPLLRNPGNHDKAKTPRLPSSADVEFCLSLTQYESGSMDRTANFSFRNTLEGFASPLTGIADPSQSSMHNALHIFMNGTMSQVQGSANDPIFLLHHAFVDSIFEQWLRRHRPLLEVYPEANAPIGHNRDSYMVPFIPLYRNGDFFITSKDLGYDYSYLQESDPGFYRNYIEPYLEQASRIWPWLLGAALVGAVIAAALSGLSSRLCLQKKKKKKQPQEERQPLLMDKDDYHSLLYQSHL
Procedure: The ability of the skin treatment compounds and plant extracts to inhibit tyrosinase enzyme activity was evaluated. Tyrosinase enzyme is involved in melanin production and thus inhibition of tyrosinase may suppress melanin production, which may result in lightening of skin color and/or inhibition of further darkening of skin color. Arbutin is a conventional plant-derived compound used in skin lightening treatments and was therefore selected for use as a positive control. B16-F10 cells were trypsinized using Trypsin-EDTA and cell density was determined. The cell slurry was diluted to a concentration of 18,000 cells per milliliter (mL) in a growth media containing RPMI 1640 supplemented with fetal bovine serum. […] Arbutin was evaluated at concentrations of 0 (untreated), 25, 125, and 250 μg/mL. […] The UV absorbance of each well was determined using a plate reader with the primary wave length set to 475 nm. Tyrosinase inhibition was determined using the UV absorbance at 475 nm according to the following equation: % Inh=(Max signal−Compound signal)/(Max signal−Min signal)×100 Where “% Inh” is the percent inhibition of tyrosinase, the “Max signal” is the UV absorption for cells treated with L-DOPA, and the “Min signal” is the UV absorption of cells not treated with L-DOPA.

[5] = B16-F10 cells, 72 hours, 0.01 to 100 ug/mL, CellTiter-Glo

SMILES | % Melanin Elimination, skin treatment compound/plant extract [2] [%] | IC50 cellular toxicity, skin treatment compound/plant extract [1, 5] [µg/mL] | % Melanin Synthesis Inhibition, skin treatment compound/plant extract [3] | also measured
C/C=C1/[C@H](O[C@@H]2O[C@H](CO)[C@@H](O)[C@H](O)[C@H]2O)OC=C(C(=O)OC)[C@H]1CC(=O)OCCc1ccc(O)c(O)c1 [Oleuropein] | 37.0 | – | – | IC50 [1, 5]: 90.3 µg/mL (≈ 167 µM)
COc1cc2c3c(c1OC)-c1ccccc1C[C@H]3N(C)CC2 [Nuciferine] | 34.1 | – | – | IC50 ([1]; B16-F10, 72 h): 62.2 µg/mL (≈ 211 µM); inhibition at 100 µg/mL ([3]; Mus musculus, read-out: % Melanin Synthesis Inhibition, skin treatment compound/plant extract): 104%
CN[C@@H](C)[C@H]1[C@H](O)C[C@@]2(C)[C@@H]3CC[C@H]4C(C)(C)[C@@H](NC)CC[C@@]45C[C@@]35CC[C@]12C [Cyclovirobuxine D] | 92.4 | >100 | 53.2% | –
OC[C@H]1O[C@@H](Oc2ccc(O)cc2)[C@H](O)[C@@H](O)[C@@H]1O [Arbutin] | – | – | – | % Tyrosinase Inhibition (Arbutin) ([4]; arbutin 125 μg/mL, control of the same line): 38.3% and 52.8%
O=C(O)CCCC[C@@H]1CCSS1 (racemic) [Lipoic acid] | 65.7 | >100 | 30.3** % | % Tyrosinase Inhibition, skin treatment compound/plant extract ([4]; 100 μg/mL, average of two wells): 98.6%
Oc1ccc(O)cc1 [Hydroquinone, reference compound] | – | – | – | IC50 cellular toxicity, Hydroquinone IC50 (corresponding positive control) ([1]; B16-F10 cells, 72 hours, hydroquinone positive control run with the substance of the same line): (7.0) μg/mL; also recorded: (4.2) μg/mL; also recorded: (4.1) μg/mL; % Melanin Elimination (hydroquinone control) ([2]; hydroquinone 100 μg/mL): 70.6%
CC1=C2C[C@H]3[C@@H](CC(=O)[C@H]4C[C@@H](O)CC[C@@]43C)[C@@H]2CC[C@]12O[C@@H]1C[C@H](C)CN[C@H]1[C@H]2C [Peimisine] | 23.8 | >50 | 62.1% | –
